Assay results as given in patent US7547440B2, “T-cell epitope peptides” (Meiji Dairies Corporation, priority 1996, dated 2009).

Test system: T-cell line stimulated by Cha o 2 from patients with Japanese cypress pollinosis
Test: Growth response ([3H]thymidine uptake) of Cha o 2-stimulated T-cell lines to overlapping peptides
Type: cell-based, human
Conditions: Cha o 2 overlapping peptides, final concentration 1 μM; T-cell lines from 20 patients; FIG. 5, FIG. 8
From the text: To obtain the T-cell epitope peptides of the present invention, overlapping peptides that cover the entire primary structures of Cha o 1 and Cha o 2 were synthesized; each peptide consists of the adequate number of amino acid residues (12 to 20 residues). The peptide of the present invention stimulates and/or suppresses the activity of T cells derived from patients with pollinosis caused by tree pollens in springtime. In other words, the peptide of the present invention can induce proliferation of T cells or responses of T cells such as secretion of lymphokines, and/or can induce T-cell anergy (non-responsiveness). T-cell epitope sites on the allergen molecules can be identified using T-cell growth as an index in accordance with the method described in JP-A-Hei 8-47392. In particular, T-cell lines or T-cell clones, which are specifically reactive with Cha o 1 and Cha o 2, are established for every patient from peripheral lymphocytes of a patient with Japanese cypress pollinosis. The T-cell lines or T-cell clones are cultured in the presence of each peptide of the overlapping peptides. The epitope sites are identified by measuring the proliferation of T cells in the presence of the peptide (e.g., uptake of [^3H]thymidine into the cells) and calculating a stimulation index. […] Based on the data obtained thus, a mean stimulation index for each peptide is calculated for each patient group. […]

For “2-14: overlapping peptide of Japanese cypress pollen allergen Cha o 2, 20 residues (ARWKNSKIWLQFAQLTDFNL)”, the “T-cell stimulating activity (contains at least one T-cell epitope)” value was “possess a T-cell stimulating activity”.
